Data reported in PubChem BioAssay (NCI).
Where “and” joins values, the source holds several entries; their conditions need not be identical. Equal values may be shown once.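 Test compounds were applied to cells in 96-well plates for 48 hours at 5 doses. At the GI50, growth is halved. TGI marks complete inhibition of growth.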

Legend:
Assay in all cases: DTP human tumour cell line panel, 48 h
786-0 renal = tested on: 786-0 renal
A498 renal = tested on: A498 renal
A549 NSCLC = tested on: A549 NSCLC
ACHN renal = tested on: ACHN renal
BT-549 breast = tested on: BT-549 breast
CAKI-1 renal = tested on: CAKI-1 renal
CCRF-CEM leukemia = tested on: CCRF-CEM leukemia
DU-145 prostate = tested on: DU-145 prostate
EKVX NSCLC = tested on: EKVX NSCLC
HCC-2998 colon = tested on: HCC-2998 colon
HCT-15 colon = tested on: HCT-15 colon
HOP-62 NSCLC = tested on: HOP-62 NSCLC
HOP-92 NSCLC = tested on: HOP-92 NSCLC
HT29 colon = tested on: HT29 colon
IGROV1 ovarian = tested on: IGROV1 ovarian
K-562 leukemia = tested on: K-562 leukemia
LOX IMVI melanoma = tested on: LOX IMVI melanoma
M14 melanoma = tested on: M14 melanoma
MALME-3M melanoma = tested on: MALME-3M melanoma
MDA-MB-231 breast = tested on: MDA-MB-231 breast
MDA-MB-435 = tested on: MDA-MB-435
MDA-N = tested on: MDA-N
MOLT-4 leukemia = tested on: MOLT-4 leukemia
NCI-H23 lung = tested on: NCI-H23 lung
NCI-H460 lung = tested on: NCI-H460 lung
NCI-H522 lung = tested on: NCI-H522 lung
NCI/ADR-RES ovarian = tested on: NCI/ADR-RES ovarian
OVCAR-3 ovarian = tested on: OVCAR-3 ovarian
OVCAR-4 ovarian = tested on: OVCAR-4 ovarian
OVCAR-5 ovarian = tested on: OVCAR-5 ovarian
OVCAR-8 ovarian = tested on: OVCAR-8 ovarian
PC-3 prostate = tested on: PC-3 prostate
RPMI-8226 leukemia = tested on: RPMI-8226 leukemia
SF-268 CNS = tested on: SF-268 CNS
SF-295 CNS = tested on: SF-295 CNS
SF-539 CNS = tested on: SF-539 CNS
SK-MEL-28 melanoma = tested on: SK-MEL-28 melanoma
SK-MEL-5 melanoma = tested on: SK-MEL-5 melanoma
SK-OV-3 ovarian = tested on: SK-OV-3 ovarian
SN12C renal = tested on: SN12C renal
SNB-19 CNS = tested on: SNB-19 CNS
SNB-75 CNS = tested on: SNB-75 CNS
SR leukemia = tested on: SR leukemia
SW-620 colon = tested on: SW-620 colon
T-47D breast = tested on: T-47D breast
TK-10 renal = tested on: TK-10 renal
U251 CNS = tested on: U251 CNS
UACC-257 melanoma = tested on: UACC-257 melanoma
UACC-62 melanoma = tested on: UACC-62 melanoma
UO-31 renal = tested on: UO-31 renal
COLO 205 colon = tested on: COLO 205 colon
HCT-116 colon = tested on: HCT-116 colon
HL-60(TB) leukemia = tested on: HL-60(TB) leukemia
HS 578T breast = tested on: HS 578T breast
KM12 colon = tested on: KM12 colon
MCF7 breast = tested on: MCF7 breast
NCI-H226 lung = tested on: NCI-H226 lung
RXF 393 renal = tested on: RXF 393 renal
SK-MEL-2 melanoma = tested on: SK-MEL-2 melanoma

CCC(C)C1NC(=O)C(NC(=O)C(CC(C)C)N(C)C(=O)[C@@H]2C=CCN2C(=O)[C@H](C)O)C(C)OC(=O)[C@H](Cc2ccc(OC)cc2)N(C)C(=O)[C@@H]2CCCN2C(=O)[C@H](CC(C)C)NC(=O)C(C)C(=O)[C@H](C(C)C)OC(=O)CC1O (some centres not stated)
TGI (786-0 renal): 13.5 nM and 10.5 nM
TGI (A498 renal): 47.1 nM and 48.1 nM
TGI (A549 NSCLC): 13.1 nM
TGI (ACHN renal): 51.3 nM
TGI (BT-549 breast): 15.3 nM
TGI (CAKI-1 renal): 160 nM
TGI (CCRF-CEM leukemia): 11.4 nM
TGI (DU-145 prostate): 31.7 nM
TGI (EKVX NSCLC): 34.5 nM
TGI (HCC-2998 colon): 14.7 nM
TGI (HCT-15 colon): 111 nM
TGI (HOP-62 NSCLC): 17.7 nM
TGI (HOP-92 NSCLC): 38.2 nM
TGI (HT29 colon): 33.5 nM and 15.5 nM
TGI (IGROV1 ovarian): 19.3 nM
TGI (K-562 leukemia): 11.6 nM and 10.4 nM
TGI (LOX IMVI melanoma): 10.5 nM
TGI (M14 melanoma): 12.3 nM
TGI (MALME-3M melanoma): 13.4 nM
TGI (MDA-MB-231 breast): 35.1 nM and 94.3 nM
TGI (MDA-MB-435): 13.2 nM
TGI (MDA-N): 18.8 nM
TGI (MOLT-4 leukemia): 8.05 nM
TGI (NCI-H23 lung): 9.17 nM
TGI (NCI-H460 lung): 12.5 nM and 22.7 nM
TGI (NCI-H522 lung): 10.8 nM
GI50 (NCI/ADR-RES ovarian): 59.4 nM
TGI (NCI/ADR-RES ovarian): 11700 nM
TGI (OVCAR-3 ovarian): 28.2 nM and 11.2 nM
TGI (OVCAR-4 ovarian): 8.81 nM and 11.2 nM
TGI (OVCAR-5 ovarian): 73.8 nM
TGI (OVCAR-8 ovarian): 38.6 nM
TGI (PC-3 prostate): 27.1 nM
TGI (RPMI-8226 leukemia): 20.1 nM
TGI (SF-268 CNS): 10.9 nM and 18.6 nM
TGI (SF-295 CNS): 20 nM
TGI (SF-539 CNS): 4.67 nM
TGI (SK-MEL-28 melanoma): 5.67 nM
TGI (SK-MEL-5 melanoma): 10.2 nM
TGI (SK-OV-3 ovarian): 31.7 nM
TGI (SN12C renal): 15 nM
TGI (SNB-19 CNS): 55.6 nM
TGI (SNB-75 CNS): 12.6 nM
TGI (SR leukemia): > 100000 nM
TGI (SW-620 colon): 54.5 nM
TGI (T-47D breast): 10.9 nM
TGI (TK-10 renal): 68.2 nM and 24.6 nM
TGI (U251 CNS): 18 nM
TGI (UACC-257 melanoma): 15.6 nM and 13.4 nM
TGI (UACC-62 melanoma): 5 nM
TGI (UO-31 renal): 62.6 nM and 406 nM

[NH-]c1ncnc2c1N=C[N+]2=CC=CCO
TGI (MDA-N): > 100000 nM

O=C(Nc1ccccc1C(=O)N/N=C(\c1ccccc1)c1ccccn1)c1ccccc1
GI50 (786-0 renal): 399 nM
TGI (786-0 renal): > 100000 nM
GI50 (A498 renal): 2950 nM
TGI (A498 renal): > 100000 nM
GI50 (A549 NSCLC): 987 nM
TGI (A549 NSCLC): > 100000 nM
GI50 (ACHN renal): 418 nM
TGI (ACHN renal): > 100000 nM
GI50 (BT-549 breast): 2180 nM
TGI (BT-549 breast): > 100000 nM
GI50 (CAKI-1 renal): 397 nM
TGI (CAKI-1 renal): > 100000 nM
GI50 (CCRF-CEM leukemia): 351 nM
TGI (CCRF-CEM leukemia): > 100000 nM
GI50 (COLO 205 colon): 427 nM
TGI (COLO 205 colon): > 100000 nM
GI50 (DU-145 prostate): 999 nM
TGI (DU-145 prostate): > 100000 nM
GI50 (EKVX NSCLC): 339 nM
TGI (EKVX NSCLC): > 100000 nM
GI50 (HCC-2998 colon): 537 nM
TGI (HCC-2998 colon): > 100000 nM
GI50 (HCT-116 colon): 405 nM
TGI (HCT-116 colon): > 100000 nM
GI50 (HCT-15 colon): 112 nM
TGI (HCT-15 colon): > 100000 nM
GI50 (HL-60(TB) leukemia): 606 nM
TGI (HL-60(TB) leukemia): > 22000 nM
GI50 (HOP-62 NSCLC): 396 nM
TGI (HOP-62 NSCLC): > 100000 nM
GI50 (HOP-92 NSCLC): 552 nM
TGI (HOP-92 NSCLC): 47800 nM
GI50 (HS 578T breast): > 100000 nM
TGI (HS 578T breast): > 100000 nM
GI50 (HT29 colon): 797 nM
TGI (HT29 colon): > 100000 nM
GI50 (IGROV1 ovarian): 502 nM
TGI (IGROV1 ovarian): > 100000 nM
GI50 (K-562 leukemia): 1450 nM
TGI (K-562 leukemia): > 100000 nM
GI50 (KM12 colon): 581 nM
TGI (KM12 colon): > 100000 nM
GI50 (LOX IMVI melanoma): 505 nM
TGI (LOX IMVI melanoma): > 100000 nM
GI50 (M14 melanoma): 457 nM
TGI (M14 melanoma): 4630 nM
GI50 (MALME-3M melanoma): 1750 nM
TGI (MALME-3M melanoma): > 100000 nM
GI50 (MCF7 breast): 556 nM
TGI (MCF7 breast): > 100000 nM
GI50 (MDA-MB-231 breast): 478 nM
TGI (MDA-MB-231 breast): > 100000 nM
GI50 (MDA-MB-435): 1390 nM
TGI (MDA-MB-435): > 100000 nM
GI50 (MOLT-4 leukemia): 460 nM
TGI (MOLT-4 leukemia): > 100000 nM
GI50 (NCI-H226 lung): 828 nM
TGI (NCI-H226 lung): > 100000 nM
GI50 (NCI-H23 lung): 1870 nM
TGI (NCI-H23 lung): > 100000 nM
GI50 (NCI-H460 lung): 402 nM
TGI (NCI-H460 lung): > 100000 nM
GI50 (NCI-H522 lung): 1270 nM
TGI (NCI-H522 lung): > 100000 nM
GI50 (NCI/ADR-RES ovarian): 276 nM
TGI (NCI/ADR-RES ovarian): > 100000 nM
GI50 (OVCAR-3 ovarian): 346 nM
TGI (OVCAR-3 ovarian): > 100000 nM
GI50 (OVCAR-4 ovarian): 330 nM
TGI (OVCAR-4 ovarian): > 100000 nM
GI50 (OVCAR-5 ovarian): 933 nM
TGI (OVCAR-5 ovarian): > 100000 nM
GI50 (OVCAR-8 ovarian): 583 nM
TGI (OVCAR-8 ovarian): > 100000 nM
GI50 (PC-3 prostate): 711 nM
TGI (PC-3 prostate): > 100000 nM
GI50 (RPMI-8226 leukemia): 823 nM
TGI (RPMI-8226 leukemia): > 100000 nM
GI50 (RXF 393 renal): 1930 nM
TGI (RXF 393 renal): > 82400 nM
GI50 (SF-268 CNS): 609 nM
TGI (SF-268 CNS): > 100000 nM
GI50 (SF-295 CNS): 427 nM
TGI (SF-295 CNS): > 67000 nM
GI50 (SF-539 CNS): 621 nM
TGI (SF-539 CNS): > 100000 nM
GI50 (SK-MEL-2 melanoma): 4850 nM
TGI (SK-MEL-2 melanoma): > 100000 nM
GI50 (SK-MEL-28 melanoma): 1230 nM
TGI (SK-MEL-28 melanoma): > 100000 nM
GI50 (SK-MEL-5 melanoma): 560 nM
TGI (SK-MEL-5 melanoma): 2460 nM
GI50 (SK-OV-3 ovarian): 504 nM
TGI (SK-OV-3 ovarian): > 100000 nM
GI50 (SN12C renal): 623 nM
TGI (SN12C renal): > 100000 nM
GI50 (SNB-19 CNS): 912 nM
TGI (SNB-19 CNS): > 100000 nM
GI50 (SNB-75 CNS): 1070 nM
TGI (SNB-75 CNS): > 100000 nM
GI50 (SR leukemia): 507 nM
TGI (SR leukemia): > 100000 nM
GI50 (SW-620 colon): 723 nM
TGI (SW-620 colon): > 100000 nM
GI50 (T-47D breast): 666 nM
TGI (T-47D breast): > 100000 nM
GI50 (TK-10 renal): 584 nM
TGI (TK-10 renal): > 100000 nM
GI50 (U251 CNS): 657 nM
TGI (U251 CNS): > 100000 nM
GI50 (UACC-257 melanoma): 2580 nM
TGI (UACC-257 melanoma): > 100000 nM
GI50 (UACC-62 melanoma): 496 nM
GI50 (UO-31 renal): 428 nM
TGI (UO-31 renal): > 25500 nM
